Tested on: cytokine induced oxidatively modified proteins in NHBE cells
Assay: OxyBlot oxidized protein analysis
Assay type: cell-based, human
Settings: TNF + IL-4, FIG. 4
Protocol: The OxyBlot™ assay (Intergen) detects oxidative modification of proteins by reactive oxygen species such as hydroxynonenal. As a consequence of the modification, carbonyl groups are introduced into protein side chains by a site-specific mechanism. OxyBlot™ detects these carbonyl groups, which is a hallmark of the oxidation status of proteins.
Normal human bronchial epithelial cells (NHBE) were purchased from Clonetics. They were cultured in BEGM (Clonetics) media without retinoic acid. In a typical experiment, the cells were seeded in 24-well plates. Media was changed to BEGM without retinoic acid (RA) and hydrocortisone (HC) 24 hr before dosing. Cells were then exposed to compounds in fresh BEGM without RA and HC for 20 min at 37° C., subsequently stimulated with TNF (10 ng/ml) and IL-4 (20 ng/ml) purchased from Boehringer Mannheim for another 20 min at 37° C. All compounds were dissolved in DMSO and the final concentration of DMSO was 0.2%.
Cells were washed 3 times with cold PBS, and lysed in 100 μl/well 1×RIPA buffer (25 mM Tris pH7.6, 150 mM NaCl, 2 mM EDTA, 1% IGEPAC, 0.5% deoxycholate, 0.1% SDS), 50 mM DTT, 1 mM PMSF, […] leupeptin, 1 μl/ml aprotinin. The cell lysates were clarified by centrifugation. 5 μl of the lysates were mixed with 5 μl 12% SDS (OxyBlot™ kit) and 10 μl of 1×2,4-Dintirophenylhydrazin (DNPH) (OxyBlot™ kit). […]

For `S=C(S)N1CCCC1` [PTDC, pyrrolidine dithiocarbamate, reference compound], the “inhibition of cytokine induced oxidatively modified proteins” value was “inhibit”.
